Tests used:
Conditions in all cases: bmdc
[1] = Cytotoxicity against C57BL/6 mouse BMDCs at 2 to 50 microM by MTT assay
IL-6 (mouse) = assay: Antiinflammatory activity in C57BL/6 mouse BMDCs assessed as inhibition of LPS-stimulated IL-6 production treated 1 hr before LPS challenge measured 16 hrs post stimulation by ELISA
[2] = Antiinflammatory activity in C57BL/6 mouse BMDCs assessed as inhibition of LPS-stimulated IL-12p40 production treated 1 hr before LPS challenge measured 16 hrs post stimulation by ELISA
[3] = Antiinflammatory activity in C57BL/6 mouse BMDCs assessed as inhibition of LPS-stimulated TNF-alpha production treated 1 hr before LPS challenge measured 16 hrs post stimulation by ELISA

Compound	Activity [1]	IC50 (IL-6 (mouse))	IC50 [2]	IC50 [3]
COc1cc(O)c2c(c1)O[C@H](c1ccc(O[C@@H]3O[C@H](CO)[C@@H](O)[C@H](O)[C@H]3O[C@@H]3OC[C@](O)(CO[C@@H]4OC[C@](O)(CO)[C@H]4O)[C@H]3O)c(OC)c1)CC2=O	Non-toxic	> 50 µM	> 50 µM	> 50 µM
COc1cc(O)c2c(c1)O[C@H](c1ccc(O[C@@H]3O[C@H](CO)[C@@H](O)[C@H](O)[C@H]3O[C@@H]3OC[C@](O)(CO)[C@H]3O)c(OC)c1)CC2=O	Non-toxic	> 50 µM	> 50 µM	> 50 µM
COc1cc([C@@H]2CC(=O)c3c(O)cc(O[C@@H]4O[C@H](CO)[C@@H](O)[C@H](O)[C@H]4O[C@@H]4OC[C@](O)(CO)[C@H]4O)cc3O2)ccc1O	Non-toxic	> 50 µM	> 50 µM	> 50 µM
COc1cc([C@@H]2c3c(cc(OC)c(O)c3OC)C[C@H](CO)[C@H]2CO[C@@H]2O[C@H](CO)[C@@H](O)[C@H](O)[C@H]2O)cc(OC)c1O	Non-toxic	> 50 µM	14.6 µM	> 50 µM
COc1cc(/C=C/CO)cc(OC)c1O[C@@H]1O[C@H](CO)[C@@H](O)[C@H](O)[C@H]1O[C@@H]1OC[C@](O)(CO)[C@H]1O	Non-toxic	> 50 µM	> 50 µM	> 50 µM
CO[C@@H](/C=C/c1ccc(O)cc1)C[C@@H](O)CCc1ccc(O)cc1	Non-toxic	0.68 µM	0.09 µM	0.32 µM
CO[C@H](/C=C/c1ccc(O)cc1)C[C@@H](O)CCc1ccc(O)cc1	Non-toxic	> 50 µM	11.8 µM	> 50 µM
O=C(/C=C/c1ccc(O)cc1)C[C@@H](O)CCc1ccc(O)cc1	Non-toxic	> 50 µM	> 50 µM	> 50 µM
COc1cc(O)c2c(=O)c(OC)c(-c3ccc(O[C@@H]4O[C@H](CO)[C@@H](O)[C@H](O)[C@H]4O[C@@H]4OC[C@](O)(CO)[C@H]4O)c(OC)c3)oc2c1	Non-toxic	8.96 µM	3.86 µM	1.01 µM
COc1cc(O)c2c(=O)c(O[C@H]3O[C@H](COC(=O)CC(C)(O)CC(=O)O)[C@@H](O)[C@H](O)[C@H]3O)c(-c3ccc(O[C@@H]4O[C@H](CO)[C@@H](O)[C@H](O)[C@H]4O)c(OC)c3)oc2c1 (some centres undefined)	Non-toxic	> 50 µM	> 50 µM	> 50 µM
COc1cc(O)c2c(=O)c(O[C@H]3O[C@H](COC(=O)CC(C)(O)CC(=O)OC[C@H]4O[C@@H](Oc5c(OC)cc(/C=C/CO)cc5OC)[C@H](O)[C@@H](O)[C@@H]4O)[C@@H](O)[C@H](O)[C@H]3O)c(-c3ccc(O[C@@H]4O[C@H](CO)[C@@H](O)[C@H](O)[C@H]4O)c(OC)c3)oc2c1 (some centres undefined)	Non-toxic	> 50 µM	> 50 µM	> 50 µM
COc1cc(-c2cc(=O)c3c(O)cc(O[C@@H]4O[C@H](CO)[C@@H](O)[C@H](O)[C@H]4O[C@@H]4OC[C@](O)(CO)[C@@H]4O)cc3o2)ccc1O	Non-toxic	> 50 µM	76.8 µM	> 50 µM
COc1cc(O)c2c(=O)cc(-c3ccc(O[C@@H]4O[C@H](CO)[C@@H](O)[C@H](O)[C@H]4O[C@@H]4OC[C@](O)(CO)[C@H]4O)c(OC)c3)oc2c1	Non-toxic	> 50 µM	> 50 µM	> 50 µM
COc1cc([C@H]2OC[C@H]3[C@@H]2CO[C@@H]3c2cc(OC)c(O)c(OC)c2)ccc1O	Non-toxic	20.9 µM	2 µM	22.3 µM
COc1cc([C@H]2c3c(cc(OC)c(O)c3OC)C[C@@H](CO)[C@@H]2CO[C@@H]2O[C@H](CO)[C@@H](O)[C@H](O)[C@H]2O)cc(OC)c1O	Non-toxic	> 50 µM	> 50 µM	> 50 µM
COc1cc([C@H]2OC[C@H]3[C@@H]2CO[C@@H]3c2ccc(O)c(OC)c2)ccc1O [(+)-PINORESINOL]	Non-toxic	–	–	–
COc1cc([C@@H]2OC[C@@H]3[C@H]2CO[C@H]3c2ccc(O)c(OC)c2)ccc1O [(+)-PINORESINOL]	–	> 50 µM	28.6 µM	> 50 µM
C=C(C)[C@@H]1CC[C@]2(C(=O)O)CC[C@]3(C)[C@H](CC[C@@H]4[C@@]5(C)CC[C@H](O)C(C)(C)[C@@H]5CC[C@]43C)[C@@H]12 [BETULINIC ACID]	Non-toxic	21.3 µM	3.61 µM	19.4 µM
CC1(C)CC[C@]2(CO)CC[C@]3(C)C(=CC[C@@H]4[C@@]5(C)CC[C@H](O)C(C)(C)[C@@H]5CC[C@]43C)[C@@H]2C1 [ERYTHRODIOL]	Non-toxic	> 50 µM	13.5 µM	> 50 µM
C=CC(C)(O)CC/C=C(\C)CCC=C(C)C (centres undefined) [NEROLIDOL]	Non-toxic	20.2 µM	7.57 µM	2.02 µM
CC1(C)CC[C@]2(C(=O)O)CC[C@]3(C)C(=CC[C@@H]4[C@@]5(C)CC[C@H](O)C(C)(C)[C@@H]5CC[C@]43C)[C@@H]2C1 [OLEANOLIC_ACID]	Non-toxic	> 50 µM	> 50 µM	> 50 µM
C[S+]([O-])c1ccc(-c2nc(-c3ccc(F)cc3)c(-c3ccncc3)[nH]2)cc1 (centres undefined) [SB-203580]	–	3.45 µM	5.21 µM	7.53 µM
COc1cc(/C=C/CO)cc(OC)c1O[C@@H]1O[C@H](CO)[C@@H](O)[C@H](O)[C@H]1O [SYRINGIN]	Non-toxic	> 50 µM	> 50 µM	> 50 µM
C/C(=C\CO)CCC[C@H](C)CCC[C@H](C)CCCC(C)C [TRANS-PHYTOL]	Non-toxic	2.02 µM	3.62 µM	1.22 µM
COc1cc([C@@H]2CC(=O)c3c(O)cc(O[C@@H]4O[C@H](CO)[C@@H](O)[C@H](O)[C@H]4O[C@@H]4OC[C@](O)(CO[C@@H]5OC[C@](O)(CO)[C@H]5O)[C@H]4O)cc3O2)ccc1O [VISCUMNEOSIDE V]	Non-toxic	> 50 µM	> 50 µM	> 50 µM
CC(=O)O[C@H]1CC[C@]2(C)[C@H]3CC=C4[C@@H]5CC(C)(C)CC[C@]5(C)CC[C@@]4(C)[C@]3(C)CC[C@H]2C1(C)C [beta-AMYRIN ACETATE]	Non-toxic	> 50 µM	> 50 µM	> 50 µM
